Where a name gives a salt, the structure may show the parent alone.
Molecular target: S. aureus 133 translation
Experiment: S. aureus in vitro transcription-translation assay (firefly luciferase, S30 extract)
Format: biochemical
Conditions: 50% inhibition of the translation of firefly luciferase
From the text: In Vitro Transcription-Translation with S. aureus Extracts
Construction of an S. aureus Luciferase Reporter Plasmid
For the construction of a reporter plasmid which can be used in an in vitro transcription-translation assay from S. aureus the plasmid pBESTluc (Promega Corporation, USA) is used. The E. coli tac promoter present in this plasmid in front of the firefly luciferase is replaced by the capA1 promoter with appropriate Shine-Dalgarno sequence from S. aureus. The primers CAPFor 5′-[…] […] […]-3′ and CAPRev 5′-[…]-3′ are used for this. The primer CAPFor contains the capA1 promoter, the ribosome binding site and the 5′ region of the luciferase gene. After PCR using pBESTluc as template it is possible to isolate a PCR product which contains the firefly luciferase gene with the fused capA1 promoter. This is, after restriction with ClaI and HindIII, ligated into the vector pBESTluc which has likewise been digested with ClaI and HindIII. The resulting plasmid p1a is able to replicate in E. coli and be used as template in the S. aureus in vitro transcription-translation assay.
Preparation of S30 Extracts from S. aureus
Six liters of BHI medium are inoculated with a 250 ml overnight culture of an S. aureus strain and allowed to grow at 37° C. until the OD600 nm is 2-4. The cells are harvested by centrifugation and washed in 500 ml of cold buffer A (10 mM Tris acetate, pH 8.0, 14 mM magnesium acetate, 1 mM DTT, 1 M KCl). After renewed centrifugation, the cells are washed in 250 ml of cold buffer A with 50 mM KCl, and the resulting pellets are frozen at −20° C. for 60 min. The pellets are thawed on ice in 30 to 60 min and taken up in buffer B (10 mM Tris acetate, pH 8.0, 20 mM magnesium acetate, 1 mM DTT, 50 mM KCl) up to a total volume of 99 ml. 1.5 ml portions of lysostaphin (0.8 mg/ml) in buffer B are introduced into 3 precooled centrifuge cups and each is mixed with 33 ml of the cell suspension. The samples are incubated at 37° C., shaking occasionally, for 45 to 60 min, before 150 μl of a 0.5 M DTT solution are added. The lysed cells are centrifuged at 30 000×g and 4° C. for 30 min. The cell pellet is taken up in buffer B and then centrifuged again under the same conditions, and the collected supernatants are combined. The supernatants are centrifuged again under the same conditions, and 0.25 volumes of buffer C (670 mM Tris acetate, pH 8.0, 20 mM magnesium acetate, 7 mM Na3 phosphoenolpyruvate, 7 mM DTT, 5.5 mM ATP, 70 μM amino acids (complete from Promega), 75 μg of pyruvate kinase (Sigma, Germany))/ml are added to the upper ⅔ of the supernatant. The samples are incubated at 37° C. for 30 min. The supernatants are dialysed against 21 of dialysis buffer (10 mM Tris acetate, pH 8.0, 14 mM magnesium acetate, 1 mM DTT, 60 mM potassium acetate) in a dialysis tube with a 3500 Da cut-off with one buffer change at 4° C. overnight. The dialysate is concentrated to a protein concentration of about 10 mg/ml by covering the dialysis tube with cold PEG 8000 powder (Sigma, Germany) at 4° C. The S30 extracts can be stored in aliquots at −70° C.
Determination of the IC50 in the S. aureus In Vitro Transcription-Translation Assay
Inhibition of protein biosynthesis of the compounds can be shown in an in vitro transcription-translation assay. The assay is based on the cell-free transcription and translation of firefly luciferase using the reporter plasmid p1a as template and cell-free S30 extracts obtained from S. aureus. The activity of the resulting luciferase can be detected by luminescence measurement.
The amount of S30 extract or plasmid p1a respectively to be employed must be tested anew for each preparation in order to ensure an optimal concentration in the assay. 3 μl of the substance to be tested, dissolved in 5% DMSO, are introduced into an MTP. Then 10 μl of a suitably concentrated plasmid solution p1a are added. […]

Structure (SMILES): NC[C@H](O)C[C@@H]1NC(=O)[C@@H](N)Cc2cc(ccc2O)-c2ccc(O)c(c2)C[C@@H](C(=O)O)NC1=O [Example 20A, 14(S)-Amino-11(S)-(3-amino-2(R)-hydroxypropyl)-5,17-dihydroxy-10,13-dioxo-9,12-diazatricyclo[14.3.1.1^2,6]henicosa-1(19),2,4,6(21),16(20),17-hexaene-8(S)-carboxylic acid dihydrochloride, reference compound]
- IC50: 1500 nM

— patent US7446102B2, “Antibacterial amide macrocycles IV” (priority 2004, dated 2008)
